Assay results published in patent US20260365692A1, “COMPOSITIONS COMPRISING PROTEINS DISSOLVED IN FLUORINATED SOLVENTS, AND METHODS OF MAKING AND USING THE SAME” (priority 2022, published 2026).

Experiments:
BSA [1] = target: T1, BSA (Bos taurus, UniProt P02769); assay: FTIR of BSA eluted from PFOc into PBS; set-up: species or system bovine; details: dispersed BSA extracted from PFOc into PBS
Method: FIG. 47 depicts stacked FTIR spectra of PD-7, BSA and the PD-7:BSA complex after elution into PBS.
To test this assertion, Fourier transform infrared (FTIR) spectroscopy was performed on BSA samples following extraction of the PD-7 dispersed protein from PFOc into a physiologic buffer. Selected model protein BSA was diluted to […], and PFNA was diluted to 2 mM in PBS. The intermolecular interactions were initiated by adding an equal amount of BSA and PFNA samples into a centrifuge tube. After 1-hour incubation, samples were frozen at −80 °C, and lyophilize overnight to remove water. FTIR spectrometry was then performed on powdered samples using LN-MCT detector (4000-800 cm-1, backward output). Data is represented by average+−SD of wavenumber among replicates depicting corresponding characteristic bonds. An equal volume of PBS was added to the BSA:PD-7 sample in PFOc, and vortexing the phase separated mixture for ~2 seconds.

A549 cells [2] = assay: Protein uptake in A549 cells, GFP; assay type: cell-based, human; details: PFNA, 24-hour exposure
Method: FIGS. 17A-17B depict the uptake of GFP in human lung A549 cells after 2 and 24 hours of incubation in the absence/presence of PFNA. Results are shown in relative fluorescence units (RFU).
(§1) Multiplexed in vitro assays were employed to probe the influence of PFNA interactions on protein uptake and transport in cells. A549 and PC9 human lung cells were prioritized for these assays given that pulmonary tissue is a primary site of perfluoroalkyl bioaccumulation in humans (Reference: 63). Before initiating experiments, cellular toxicity assays established a maximum tolerated dose of PFNA to avoid confounding protein transport experiments with substantive cell death. Protein uptake was then studied using green fluorescent protein (GFP) and bovine serum albumin (BSACy5) as model biologics that employ non-specific pinocytic mechanisms for cellular entry.

A549 cells [3] = assay: Protein uptake in A549 cells, Texas Red-labeled Transferrin; assay type: cell-based, human; details: PFNA, 24 hours of incubation
Method: FIGS. 19A-19B depicts the uptake of Texas Red-labeled Transferrin in human lung A549 cells after 2 and 24 hours of incubation in the absence/presence of PFNA. Results are shown in relative fluorescence units (RFU).
as §1

BSA [4] = target: T1, BSA; assay: Surface plasmon resonance, BSA; assay type: binding, bovine; details: after reference correction
Text: FIGS. 14A-14L depict circular dichroism spectra of Hb (FIG. 14A), GFP (FIG. 14B), BSA (FIG. 14C), β-Gal (FIG. 14D), rabbit serum IgG (FIG. 14E), transferrin (FIG. 14F), and urease (FIG. 14G) in the absence (black line) or presence (dashed lines) of PFNA. Increasing dash sequence indicated higher concentration of PFNA. FIG. 14H: Change in molar ellipticity at 216 nm (Δθ216) of PFNA-treated proteins, relative to native controls, as a function of increasing ligand concentration. FIG. 14I: Percentage change in secondary structural motifs of Hb, β-Gal and IgG between the native protein and 1 mM PFNA treated samples. β-sheet structures were further differentiated into parallel and antiparallel conformations. Hb, β-Gal and IgG were prioritized for analysis based on their significant spectral shift in the presence of 1 mM PFNA. FIGS. 14J-14L: Sensograms for BSA (FIG. 14J), β-gal (FIG. 14K), and IgG (FIG. 14L) showing relative response (R.U.) at 10, 25, 50, 75, and 100 μM.
To test this assertion, PFNA binding to three exemplary proteins, BSA, β-Gal and IgG, was studied via isothermal titration calorimetry (ITC) and surface plasmon resonance (SPR) techniques. […] SPR analysis yielded similar results, with sensorgrams (FIGS. 14J-14L) that diverged from a simple 1:1 ligand-protein model. […]

[5] = Thermal stability of proteins in PFNA/PFOc (bioactivity after heating); assay type: physicochemical; details: PFNA/PFOc mixture compared to aqueous solution, 30 min heating
Method: FIGS. 16A-16C depict that the thermal stability of β-gal, GFP, and Trypsin is enhanced when the proteins are dissolved in a PFNA/PFOc mixture, compared to aqueous solutions of the proteins.
PFNA enhanced thermal stability in PFOc Differential scanning calorimetry (DSC) measurements were performed on 5 test proteins dissolved in either PBS (Aq.) or Perfluorooctane (PFOc). PFNA dispersant was added only for the PFOc conditions. DSC was performed at 2 °C/min ramp from 40 °C-100 °C. Melting temperature (Tm) was determined based on positive inflection of heat capacity curve, indicating protein unfolding (FIG. 15). Change in melting temperature (ATm (°C)) represented the difference in Tm between aqueous (Aq.) and PFOc data. Tm for GFP in PFOc could not be achieved at the maximum temperature of 100 °C for the DSC experiments. Each protein was dissolved in PBS (Aq.) or PFNA/PFOc mixture. Dissolved proteins were heated to 75 °C (β-gal), 90 °C (GFP) or 80 °C (Trypsin); treatment temperatures were determined based on aqueous melting temperatures for each protein. Positive controls were maintained at room temperature (25 °C). […] Bioactivity was evaluated then via fluorescence measurements for GFP, or using colorimetric substrate conversion assays (ONPG for β-gal, BAEE for Trypsin). […]

T1 sequence (P02769 25-607): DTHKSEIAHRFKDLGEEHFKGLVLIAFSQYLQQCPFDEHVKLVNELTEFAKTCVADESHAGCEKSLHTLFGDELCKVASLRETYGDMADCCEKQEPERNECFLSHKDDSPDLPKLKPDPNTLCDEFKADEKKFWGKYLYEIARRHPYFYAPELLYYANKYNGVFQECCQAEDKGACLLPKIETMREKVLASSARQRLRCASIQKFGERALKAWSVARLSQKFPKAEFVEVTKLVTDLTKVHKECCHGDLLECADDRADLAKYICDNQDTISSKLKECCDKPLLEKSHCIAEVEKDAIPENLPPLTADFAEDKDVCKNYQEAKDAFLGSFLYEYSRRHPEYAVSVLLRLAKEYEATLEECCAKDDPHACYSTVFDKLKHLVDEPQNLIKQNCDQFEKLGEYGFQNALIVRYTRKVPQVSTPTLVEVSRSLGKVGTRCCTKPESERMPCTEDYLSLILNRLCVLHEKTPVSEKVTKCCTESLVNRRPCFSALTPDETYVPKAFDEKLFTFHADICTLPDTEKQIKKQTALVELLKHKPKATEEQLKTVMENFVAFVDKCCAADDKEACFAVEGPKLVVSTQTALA

| Compound | dispersant spectral feature after extraction into physiologic buffer/PBS (BSA [1]) | uptake of GFP (A549 cells [2]) | increase in cellular fluorescence (Transferrin uptake) compared to native protein (A549 cells [3]) [%] | SPR response (BSA [4]) | thermal stability [5] |
| --- | --- | --- | --- | --- | --- |
| O=C(O)C(F)(F)C(F)(F)C(F)(F)C(F)(F)C(F)(F)C(F)(F)C(F)(F)C(F)(F)F [Compound 7, perfluoronanonic acid] | showed the presence of C—F stretching vibrations (1500-1000 cm-1) | nominal increase in uptake | 43 | negative responses | – |
| β-Gal: β-Galactosidase (β-Gal), dissolved in PBS/saline or dispersed in PFOc | – | – | – | – | enhanced |
